According to patent US20220133629A1, “FORMULATIONS FOR TREATMENT OF DRY EYE DISEASE” (Aldeyra Therapeutics, Inc., priority 2018, published 2022):

Test system: patients with dry eye disease
Experiment: Phase 2b: overall efficacy on signs and symptoms
Format: in vivo, human
Method: In a Phase 2b clinical trial, the efficacy of Reproxalap Ophthalmic Solutions (0.25% and 0.1%) were evaluated in patients with dry eye disease (see the details in Example 1). […] The efficacy profile of Reproxalap Ophthalmic Solutions was evident as early as two weeks following treatment initiation. […] Efficacy Analysis • Evaluated baseline to weeks 2, 4, 8 and 12 change scores with reproxalap on DED sign and symptom endpoints (both pre-CAE and CAE endpoints). Each endpoint was analyzed at a two-sided alpha level of 0.05, and the overall type I error was not controlled for in this investigative study. • Evaluated effect size of baseline to weeks 2, 4, 8 and 12 change scores of reproxalap vs vehicle on DED sign and symptom endpoints (both pre-CAE and CAE endpoints) to confirm the endpoint selection for primary outcome parameters and sample size for Phase 3 studies with reproxalap. • Sub-group analyses on effect size of baseline to weeks 2, 4, 8 and 12 change scores of reproxalap vs vehicle on DED sign and symptom endpoints (both pre-CAE and CAE endpoints) [Subgroups were prospectively detailed in the Statistical Analysis Plan (SAP)].

Q: CC(C)(O)c1nc2ccc(Cl)cc2cc1N [Reproxalap, reproxalap] was tested. Which “Dose response between 0.1% and 0.25% dose strengths” value did it give?
A: dose response
